Reference: PubChem BioAssay (NCI)
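1) Cells in 96-well plates. 2) Compound, 48 h, 5 concentrations. 3) Linear interpolation between surrounding doses. 4) Unreached endpoint = highest concentration. GI50 = concentration required for 50% inhibition of growth. Definition used: TGI = concentration required for complete inhibition of growth.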

Key:
Test in all cases: NCI tumour cell line growth inhibition, 48 h
HCC-2998 colon = test system: HCC-2998 colon
HOP-92 NSCLC = test system: HOP-92 NSCLC
KM12 colon = test system: KM12 colon
LOX IMVI melanoma = test system: LOX IMVI melanoma
MOLT-4 leukemia = test system: MOLT-4 leukemia
OVCAR-3 ovarian = test system: OVCAR-3 ovarian
SK-MEL-5 melanoma = test system: SK-MEL-5 melanoma
SK-OV-3 ovarian = test system: SK-OV-3 ovarian
UO-31 renal = test system: UO-31 renal
ACHN renal = test system: ACHN renal

| SMILES | TGI (HCC-2998 colon) | TGI (HOP-92 NSCLC) | TGI (KM12 colon) | TGI (LOX IMVI melanoma) | TGI (MOLT-4 leukemia) | TGI (OVCAR-3 ovarian) | TGI (SK-MEL-5 melanoma) | TGI (SK-OV-3 ovarian) | TGI (UO-31 renal) | TGI (ACHN renal) | GI50 (HCC-2998 colon) | GI50 (HOP-92 NSCLC) | GI50 (KM12 colon) | GI50 (MOLT-4 leukemia) | GI50 (OVCAR-3 ovarian) | GI50 (SK-MEL-5 melanoma) | GI50 (SK-OV-3 ovarian) | GI50 (UO-31 renal) | GI50 (ACHN renal) | GI50 (LOX IMVI melanoma) |
| --- | --- | --- | --- | --- | --- | --- | --- | --- | --- | --- | --- | --- | --- | --- | --- | --- | --- | --- | --- | --- |
| Cc1nc2ccccc2c(=O)n1CC(=O)O | > 100 µM | > 100 µM | > 100 µM | > 100 µM | > 100 µM | > 100 µM | > 100 µM | > 100 µM | > 100 µM |  |  |  |  |  |  |  |  |  |  |  |
| CCOc1ccc2c(ccc(/C=C\c3cc(C)c4cccnc4c3O)[n+]2C)c1 | > 100 µM | 3.36 µM | 22.7 µM | 66.4 µM | 10.6 µM | 2 µM | 3.48 µM | 10.4 µM | 35.1 µM | 21.4 µM |  |  |  |  |  |  |  |  |  |  |
| CC(=O)O[C@H]1CC[C@@]2(C)C(=CC[C@@H]3[C@@H]2CC[C@]2(C)C(=N/O)/C(=C/c4ccc([N+](=O)[O-])cc4)C[C@@H]32)C1 |  | 62 µM | > 100 µM | > 100 µM | > 100 µM | 11.3 µM | 7.95 µM | > 100 µM | 26 µM | > 100 µM |  |  |  |  |  |  |  |  |  |  |
| CC(C)=CC(=O)OC1C2C(C)C(=O)OC2C(O)C(C)C2C=CC(=O)C21C (centres undefined) | 10.1 µM | 8.85 µM | 9.31 µM | 3.44 µM | 9.71 µM | 6.92 µM | 9.14 µM | 15.3 µM | 10.5 µM |  |  |  |  |  |  |  |  |  |  |  |
| C[C@]12C=CC(=O)C=C1CC[C@@H]1[C@@H]2C(=O)C[C@@]2(C)[C@H]1CC[C@]2(O)C(=O)CO | > 100 µM | > 100 µM | > 100 µM | > 100 µM | > 100 µM | > 100 µM | > 100 µM | > 100 µM | > 100 µM | > 100 µM |  |  |  |  |  |  |  |  |  |  |
| COc1cc2c3c(n(CCN(C)C)c(=O)c2cc1OC)-c1cc2c(cc1C3=O)OCO2 | > 100 µM | > 100 µM | > 60.2 µM | > 21.5 µM |  | 38.4 µM | 22.1 µM | > 100 µM | > 100 µM | > 100 µM | 3.5 µM | 26.7 µM | 15.2 µM | < 0.0491 µM | 8.31 µM | 1.21 µM | > 29 µM | 9.3 µM |  |  |
| Cn1cc(C[C@@H](N)C(=O)O)c2ccccc21 | > 100 µM | > 100 µM | > 100 µM | > 100 µM | > 100 µM | > 100 µM | > 100 µM | > 100 µM | > 100 µM | > 100 µM |  | > 100 µM |  |  |  | > 100 µM |  |  |  |  |
| O=C(O)c1cc(=O)[nH]c(=S)[nH]1 | > 100 µM | > 100 µM | > 100 µM | > 100 µM | > 100 µM | > 100 µM | > 100 µM | > 100 µM | > 100 µM | > 100 µM |  |  |  |  |  |  |  |  |  |  |
| CCN(CC)CCCC(Nc1c2ccc(Cl)cc2nc2ccc(OC)cc12)c1ccc(F)cc1 (centres undefined) | 3.25 µM |  | 3.67 µM | 3.26 µM | 7.06 µM | 4.44 µM | 3.15 µM | 15.9 µM | 3.15 µM | 3.64 µM | 1.74 µM |  | 2 µM | 2.72 µM | 2.16 µM | 1.7 µM | 4.33 µM | 1.56 µM | 1.97 µM | 1.77 µM |
| CN1C2C=C(c3ccccc3)CC1CC2 (centres undefined) | > 100 µM | > 100 µM | > 100 µM | > 100 µM | > 100 µM | > 100 µM | > 100 µM | > 100 µM | > 100 µM | > 100 µM |  |  |  |  |  |  |  |  |  |  |
| COc1c2c(cc3c(CCc4ccccc4)cc(=O)oc13)CCC(C)(C)O2 | > 100 µM | > 100 µM | > 100 µM | > 100 µM | > 100 µM | > 100 µM | > 100 µM | > 100 µM | > 100 µM | > 100 µM |  |  |  |  |  |  |  |  |  |  |
| CCCCN(CCCC)CCCCNc1c(C)cnc2cc(Cl)ccc12 | 29.4 µM | 36.2 µM | > 100 µM | 29.7 µM | > 100 µM | > 100 µM |  |  | 25.1 µM | > 100 µM |  |  |  |  |  |  |  |  |  |  |
| Cc1ccc(/C(=C/C=C(C#N)C#N)Sc2cc(Cl)ccc2Cl)cc1 |  |  | 28 µM | 3.33 µM |  | 11.8 µM | 26.4 µM | 27.8 µM | > 100 µM | 10 µM |  |  |  |  |  |  |  |  |  |  |
| CC(/C=C/c1ccc([N+](=O)[O-])o1)=N/N1CC(CN2CCOCC2)OC1=O (centres undefined) | > 100 µM | 30.5 µM | > 100 µM | > 100 µM | 68.6 µM | 42.8 µM | 28.6 µM | > 100 µM | 45.4 µM | 34.2 µM |  |  |  |  |  |  |  |  |  |  |
| c1ccc2c(c1)nc1n2CSC1 |  | > 100 µM |  | > 100 µM | > 100 µM | > 100 µM | > 100 µM | > 100 µM | > 100 µM | > 100 µM |  |  |  |  |  |  |  |  |  |  |
| CC(=O)[O-].CC(=O)[O-].[NH2-].[Pt+2].c1ccncc1 | > 100 µM | > 100 µM | > 100 µM | > 100 µM | 27.3 µM | > 100 µM | > 100 µM | > 100 µM | > 100 µM | 32.2 µM |  |  |  |  |  |  |  |  |  |  |
| CN1CCN(Cc2ccc(NC(=O)c3ccc(C#N)c(C#Cc4cnc(N)c5ncccc45)c3)cc2C(F)(F)F)CC1 | > 100 µM | 58.1 µM |  |  | 8.04 µM | 10.4 µM | 83.1 µM | 44.6 µM | 2.99 µM | 3.15 µM | 3.89 µM | 12.2 µM |  | 1.82 µM | 3.34 µM | 6.67 µM | 19.3 µM | 1.6 µM | 1.69 µM |  |
| CCOP(=O)(OCC)C(Cc1ccc(OC)c(OC)c1)N=C(c1ccccc1)c1ccccc1 (centres undefined) | 52.4 µM | > 100 µM | > 100 µM |  |  | > 100 µM | 55.9 µM |  | > 100 µM | > 100 µM |  |  |  |  |  |  |  |  |  |  |
| O=C1CN2C(Cl)(Cl)C2(c2ccccc2)c2cc(Cl)ccc2N1CC(F)(F)F (centres undefined) | 35.9 µM | 41.1 µM | 42.2 µM | 39 µM | 55.8 µM | 39 µM | 33.2 µM | > 100 µM | > 100 µM | > 100 µM |  |  |  |  |  |  |  |  |  |  |
| [C-]#[O+].[Cl][Sn]([Cl])[Cl].[Cl][Sn]([Cl])[Cl].[Pt].c1ccncc1 | > 100 µM | > 100 µM | > 100 µM | > 31.6 µM | > 100 µM | > 100 µM | > 100 µM | > 100 µM | > 100 µM |  |  |  |  |  |  |  |  |  |  |  |
| Cc1cc2c(cc1C)[n+](=O)c(C(=O)N1CCN(c3ccc([N+](=O)[O-])cc3)CC1)c(C)n2[O-] | > 100 µM | > 100 µM | > 100 µM | > 100 µM | > 100 µM | > 100 µM | > 100 µM | 51.2 µM | > 100 µM | 12.7 µM |  |  |  |  |  |  |  |  |  |  |
| CC1=C[C@]2(CC(C)C3C(CC4(C)C5CCC6C(C)(C)C(=O)CC[C@@]67C[C@@]57CC[C@]34C)O2)OC1=O (some centres undefined) | > 100 µM | 45.7 µM | > 100 µM | 46.6 µM | > 100 µM |  | 20.2 µM |  |  | > 100 µM |  |  |  |  |  |  |  |  |  |  |
| O=C(Nc1ccc(Cl)cc1)/C(Cc1cccc[n+]1[O-])=N\Nc1ccc([N+](=O)[O-])cc1[N+](=O)[O-] | > 100 µM | > 100 µM | > 100 µM | > 100 µM | > 100 µM | > 100 µM | > 100 µM | > 100 µM | > 100 µM | > 100 µM |  |  |  |  |  |  |  |  |  |  |
| COc1cc(C(N)=O)cc(NC(=O)/C=C/c2ccccc2)c1OC | > 100 µM | > 100 µM | > 100 µM | > 100 µM | > 100 µM | > 100 µM | > 100 µM | > 100 µM | > 100 µM | > 100 µM |  |  |  |  |  |  |  |  |  |  |
| Cc1ccc(S(=O)(=O)Oc2cc(S(=O)(=O)O)cc3cc(S(=O)(=O)O)cc(N)c23)cc1 | > 100 µM | > 100 µM | > 100 µM | > 100 µM |  | > 100 µM | > 100 µM | > 100 µM | > 100 µM | > 100 µM |  |  |  |  |  |  |  |  |  |  |
| CC1(C)CCc2cc3c(-c4ccccc4)cc(=O)oc3cc2O1 |  | 72.3 µM |  | > 100 µM | > 100 µM | > 100 µM | > 100 µM | > 100 µM | > 100 µM | > 100 µM |  |  |  |  |  |  |  |  |  |  |
| Cc1cccc2c(N)c3cccc(C(=O)NCCN(C)C)c3nc12 | 0.218 µM | 2.94 µM | 0.856 µM | 0.158 µM |  | 0.929 µM | 0.269 µM | 14.5 µM | 0.81 µM | 6.75 µM |  |  |  |  |  |  |  |  |  |  |
| O=C1Nc2ccccc2Nc2nc3cccccc-3c21 | > 100 µM | > 100 µM | > 100 µM | > 100 µM |  | > 100 µM | > 100 µM | > 100 µM | > 100 µM | > 100 µM |  |  |  |  |  |  |  |  |  |  |
| CO/N=C1/c2sccc2[C@H](NC(=O)C(F)(F)F)[C@@H]1O | > 100 µM | > 100 µM |  | > 100 µM | > 100 µM | > 100 µM | > 100 µM | > 100 µM | > 100 µM |  |  |  |  |  |  |  |  |  |  |  |
